According to patent US20080139534A1, “Bisbenzamidines and bisbenzamidoximes for the treatment of human African trypanosomiasis” (XAVIER UNIVERSITY OF LOUISIANA, priority 2006, published 2008):
Like-named read-outs stand apart in the source and are kept apart here. Marks after values point to notes of the source that are not given here.

Legend:
[1] = system: T. b. brucei Lab 110 EATRO; test: In vitro trypanocidal activity, bloodforms in HMI-18 medium, Coulter counts; format: cell-based, Trypanosoma brucei brucei; settings: 48 h exposure, bloodforms, read-out: Lab 100 EATRO IC50
[2] = system: T. b. rhodesiense KETRI 243; test: as above; format: cell-based, Trypanosoma brucei rhodesiense; settings: 48 h exposure
calf thymus DNA = test: Thermal denaturation study, DNA binding affinity (ΔTm); settings: 1:5 compound to base pair ratio;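 further: shift in midpoint melting temperature of calf thymus DNA thermal denaturation curves caused by compound binding, values averaged over at least two determinations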
Description: (§1) The binding affinity was measured by determining the change in the midpoint (Tm) of the thermal denaturation curves of calf thymus DNA as well as poly(dA-dT) at a 1:5 compound to base pair ratio.

poly(dA-dT) = test: as above; settings: 1:5 compound to base pair ratio;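 further: shift in the midpoint temperature of the thermal melting curve of poly(dA-dT), each value the mean of two or more independent determinations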
Description: as §1

[3] = system: T. b. brucei Lab 110 EATRO; test: In vivo efficacy in infected mice; parameters: species or system Trypanosoma brucei brucei
[4] = Trypanosoma brucei, RHODESIENSE
[5] = mice, 1, 2.5, 5, 10, 15, 25 mg/kg/day i.p. for 3 days (all doses failed to cure)
[6] = mice, 1, 2.5, 5, 10, 15, 25 mg/kg/day i.p. for 3 days (all doses)
[7] = mice, 1 mg/kg/day i.p. for 3 days
[8] = mice, 5 mg/kg/day i.p. for 3 days
[9] = mice, 10 mg/kg/day i.p. for 3 days

Structure (SMILES)	DNA Binding Δ Tm Calf thymus (calf thymus DNA)	DNA Binding Δ Tm Poly (dA-dT) (poly(dA-dT))	IC50 [1]	IC50 [2]	other results
c1ccc2[nH]c(-c3ccc(N4CCN(c5ccc(-c6nc7ccccc7[nH]6)cc5)CC4)cc3)nc2c1 [compound 0115, 1,4-bis[4-(1H-benzymidazol-2-yl)phenyl]piperazine]	0.1 °C	2.0 °C	–	–	IC50 ([1]; Trypanosoma brucei): 1150 nM; IC50 [2, 4]: 5800 nM
CC(=O)c1ccc(N2CCN(c3ccc(C(C)=O)cc3)CC2)cc1 [compound 0123]	0.1 °C	0.0 °C	2350 nM	1550 nM	–
N=C(N)c1ccc(NC(=O)CCCCCCCCCCC(=O)Nc2ccc(C(=N)N)cc2)cc1 [compound 0711]	–	–	8.4 nM	6.6 nM	# Cured/#Treated (%) [3, 5]: 0/3^a; MSD [3, 6]: 5 to 10.3 days
CCCCCCCCNC(=N)c1ccc(N2CCN(c3ccc(C(=N)NCCCCCCCC)cc3)CC2)cc1.Cl.Cl [compound 0130]	4.2 °C	–	3.65 nM	19 nM	# Cured/#Treated (%) ([3]; mice, 1, 2.5, 5, 10, 15, 20 mg/kg/day i.p. for 3 days (all doses failed to cure)): 0/3^a; MSD ([3]; mice, 1, 2.5, 5, 10, 15, 20 mg/kg/day i.p. for 3 days (all doses)): 5 days
Cl.Cl.c1cc(C2=NCCN2)ccc1CC1CCCN(c2ccc(C3=NCCN3)cc2)C1 (centres unmarked) [4CF]	9.9 °C	14.1 °C	86 nM	85 nM	–
Cl.Cl.c1cc(N2CCN(c3ccc(C4=NCCCN4)cc3)CC2)ccc1C1=NCCCN1 [632N]	12.2 °C	17.9 °C	–	–	–
N=C(N)c1cccc(NC(=O)CCCCC(=O)Nc2cccc(C(=N)N)c2)c1 [compound 0715]	–	–	41 nM	21 nM	–
CCCCCCCCCNC(=N)c1ccc(N2CCN(c3ccc(C(=N)NCCCCCCCCC)cc3)CC2)cc1.Cl.Cl [compound 0132]	1.3 °C	2.7 °C	100 nM	210 nM	–
N/C(=N\O)c1ccc(NC(=O)CCCC(=O)Nc2ccc(/C(N)=N/O)cc2)cc1 [compound 0704, N,N′-bis[4-(N-Hydroxyamidino)phenyl]pentanediamide]	–	–	–	–	IC50 ([1]; Trypanosoma brucei): 7300 nM; IC50 [2, 4]: 10000 nM
N=C(N)c1ccc(NC(=O)CCCCCCCC(=O)Nc2ccc(C(=N)N)cc2)cc1 [compound 0708]	–	–	400 nM	240 nM	–
N=C(N)c1ccc(NC(=O)CCCCC(=O)Nc2cccc(C(=N)N)c2)cc1 [compound 0721]	–	–	12.5 nM	7 nM	–
N=C(N)c1ccc(OCCCCCOc2ccc(C(=N)N)cc2)cc1 [Pentamidine, reference compound]	11.1 °C	20.6 °C	–	–	IC50 [2, 4]: 2.32 nM; # Cured/#Treated (%) ([3]; mice, 1, 2.5, 5, 10, 25 mg/kg/day i.p. for 3 days (all doses cured)): 5/5*; MSD ([3]; mice, 1, 2.5, 5, 10, 25 mg/kg/day i.p. for 3 days (all doses)): >30 days
N=C(NO)c1ccc(NC(=O)c2ccc(C(=O)Nc3ccc(C(=N)NO)cc3)cc2)cc1 [compound 0333]	0.6 °C	0.0 °C	–	–	–
N=C(N)c1ccc(OCc2cccc(COc3ccc(C(=N)N)cc3)c2)cc1 [compound 0512]	14.0 °C	–	0.74 nM	1.5 nM	# Cured/#Treated (%) [3, 7]: 0/3; MSD [3, 7]: 8 days; # Cured/#Treated (%) [3, 8]: 0/3; MSD [3, 8]: 18 days; MSD [3, 9]: >30 days; MSD ([3]; mice, 15 mg/kg/day i.p. for 3 days): >30 days
CN=C(N)c1ccc(N2CCN(c3ccc(C(N)=NC)cc3)CC2)cc1 [compound 0112, N,N′-Dimethyl 4,4′-(1,4-piperazinediyl)bisbenzenecarboxidamide]	15.2 °C	22.2 °C	205 nM	33 nM	–
Cl.Cl.c1cc(N2CCCN(c3ccc(C4=NCCCN4)cc3)CC2)ccc1C1=NCCCN1 [732N]	15.5 °C	21.3 °C	–	–	–
Cl.Cl.N=C(NC1CCCCCCC1)c1ccc(N2CCN(c3ccc(C(=N)NC4CCCCCCC4)cc3)CC2)cc1 [compound 0134]	12.6 °C	15.7 °C	2.3 nM	–	–
c1cc(N2CCN(c3ccc(C4OCCO4)cc3)CC2)ccc1C1OCCO1 [compound 0111]	−1.2 °C	0.1 °C	5800 nM	2300 nM	–
N=C(NO)c1ccc(C(=O)Nc2ccc(NC(=O)c3ccc(C(=N)NO)cc3)cc2)cc1 [compound 0353]	0.4 °C	0.1 °C	–	–	–
Cl.Cl.N=C(N)c1ccc(N2CCCN(c3ccc(C(=N)N)cc3)CC2)cc1 [7AM]	15.0 °C	23.1 °C	2.15 nM	2.7 nM	–
CCCCNC(=N)c1ccc(N2CCCN(c3ccc(C(=N)NCCCC)cc3)CC2)cc1.Cl.Cl [74N]	11.8 °C	13.3 °C	180 nM	79 nM	–

Structure (SMILES)	DNA Binding Δ Tm Calf thymus (calf thymus DNA)	DNA Binding Δ Tm Poly (dA-dT) (poly(dA-dT))	IC50 [1]	IC50 [2]	other results
N=C(N)c1ccc(NC(=O)CCC(=O)Nc2ccc(C(=N)N)cc2)cc1 [compound 0707]	–	–	9000 nM	2190 nM	–
Cl.Cl.N=C(NC1CC1)c1ccc(N2CCN(c3ccc(C(=N)NC4CC4)cc3)CC2)cc1 [63C, N,N′-Dicyclopropyl 4,4′-(1,4-piperazinediyl)bisbenzenecarboxidamide]	14.5 °C	23.9 °C	–	–	–
CCC(C)CNC(=N)c1ccc(N2CCN(c3ccc(C(=N)NCC(C)CC)cc3)CC2)cc1.Cl.Cl (centres unmarked) [compound 0138]	12.9 °C	16.0 °C	13 nM	39 nM	–
O=Cc1ccc(N2CCN(c3ccc(C=O)cc3)CC2)cc1 [compound 0107]	−0.2 °C	0.0 °C	–	–	–
O=C(Nc1ccc(C2=NCCN2)cc1)C1CC1C(=O)Nc1ccc(C2=NCCN2)cc1 (centres unmarked) [8IM]	6.0 °C	9.6 °C	> 1000 nM	440 nM	–
O=[N+]([O-])c1ccc(N2CCN(c3ccc([N+](=O)[O-])cc3)CC2)cc1 [compound 0119]	0.1 °C	0.0 °C	137 nM	250 nM	–
N#Cc1ccc(N2CCN(c3ccc(C#N)cc3)CC2)cc1 [compound 0101]	0.1 °C	−0.3 °C	2890 nM	1050 nM	–
Cl.Cl.c1cc(N2CCN(c3ccc(C4=NCCN4)cc3)CC2)ccc1C1=NCCN1 [compound 0126]	15.0 °C	19.4 °C	16 nM	6.5 nM	–
N=C(N)c1ccc(OC(=O)c2ccc(C(=O)Oc3ccc(C(=N)N)cc3)cc2)cc1 [compound 0432]	9.9 °C	–	4300 nM	3100 nM	–
N=C(NO)c1ccc(N2CCN(c3ccc(C(=N)NO)cc3)CC2)cc1 [compound 0125, N,N′-Dihydroxy 4,4′-(1,4-piperazinediyl)bisbenzenecarboxidamide]	0.8 °C	–	–	–	IC50 ([1]; Trypanosoma brucei): 1020 nM; IC50 [2, 4]: 1920 nM; # Cured/#Treated (%) ([3]; mice, 50 mg/kg/day (po)): 0/3; MSD ([3]; mice, 50 mg/kg/day (po)): 5 days; # Cured/#Treated (%) ([3]; mice, 100 mg/kg/day (po)): 0/3; MSD ([3]; mice, 100 mg/kg/day (po)): 5 days; MSD ([3]; mice, 100 mg/kg/day (split dose, po; 9am and 4 pm)): >30 days
NC(=O)c1ccc(NC(=O)CCCCC(=O)Nc2ccc(C(N)=O)cc2)cc1 [compound 0716]	–	–	2800 nM	1100 nM	–
NC(=O)c1cccc(NC(=O)CCCCC(=O)Nc2cccc(C(N)=O)c2)c1 [compound 0717]	–	–	–	1980 nM	# Cured/#Treated (%) [3, 5]: 0/3^a; MSD [3, 6]: 5 days
Cl.Cl.N=C(NC1CCC1)c1ccc(N2CCN(c3ccc(C(=N)NC4CCC4)cc3)CC2)cc1 [compound 0143]	16.4 °C	–	6 nM	51 nM	# Cured/#Treated (%) [3, 7]: 0/3; MSD [3, 7]: 5 days; MSD [3, 8]: 11 days; MSD [3, 9]: >30 days
N=C(NO)c1ccc(NC(=O)c2cccc(C(=O)Nc3ccc(C(=N)NO)cc3)c2)cc1 [compound 0323]	0.6 °C	0.1 °C	–	–	–
CCCCCNC(=N)c1ccc(N2CCN(c3ccc(C(=N)NCCCCC)cc3)CC2)cc1.Cl.Cl [compound 0127]	16.9 °C	22.5 °C	3 nM	–	–
N=C(NO)c1ccc(C(=O)Nc2cccc(NC(=O)c3ccc(C(=N)NO)cc3)c2)cc1 [compound 0343]	−0.3 °C	0.1 °C	–	–	–
N#Cc1ccc(NC(=O)CC(=O)Nc2ccc(C#N)cc2)cc1 [compound 0712]	–	–	5000 nM	1600 nM	–
N#Cc1ccc(NC(=O)C(=O)Nc2ccc(C#N)cc2)cc1 [compound 0713]	–	–	680 nM	340 nM	–
CCCCCCCCCCNC(=N)c1ccc(N2CCN(c3ccc(C(=N)NCCCCCCCCCC)cc3)CC2)cc1.Cl.Cl [compound 0131]	1.3 °C	–	180 nM	220 nM	# Cured/#Treated (%) [3, 5]: 0/3^a; MSD [3, 6]: 5 days
O=C(Nc1ccccc1)C(=O)Nc1ccccc1 [compound 0714]	–	–	–	155 nM	–
